Test results reported in patent US7858635B2 (priority 2005, dated 2010).
Read-outs that look alike come from different tables or passages of the source.

Columns and labels:
[1] = target: T1, M4 muscarinic receptor (Homo sapiens, UniProt P08173); experiment: Functional mobilization of intracellular calcium (FLIPR, Fluo-3), M4-CHO cells; type: cell-based; conditions: for Emax / M4 Efficacy: 100% efficacy is the maximum response obtained with the Carbachol control; for Emax: read-out: M4 Efficacy
T1 construct: expressed in transfected cells; host or cells: CHO cells (M4-CHO, under puromycin, zeocin and blasticidin selection)
T1 sequence (P08173 1-479): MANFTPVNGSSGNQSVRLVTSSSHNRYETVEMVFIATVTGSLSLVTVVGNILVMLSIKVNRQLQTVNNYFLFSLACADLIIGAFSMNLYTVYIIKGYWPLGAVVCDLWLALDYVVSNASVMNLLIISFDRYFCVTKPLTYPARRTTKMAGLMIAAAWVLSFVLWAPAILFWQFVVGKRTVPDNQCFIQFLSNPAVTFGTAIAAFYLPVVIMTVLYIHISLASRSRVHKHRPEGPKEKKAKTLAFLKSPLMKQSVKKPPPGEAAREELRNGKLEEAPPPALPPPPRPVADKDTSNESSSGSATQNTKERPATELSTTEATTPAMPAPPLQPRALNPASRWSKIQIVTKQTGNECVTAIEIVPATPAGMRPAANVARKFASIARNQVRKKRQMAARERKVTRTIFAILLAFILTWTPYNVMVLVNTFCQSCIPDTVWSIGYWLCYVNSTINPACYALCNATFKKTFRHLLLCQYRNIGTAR
Outline: (§1)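 Fluo-3 read-out, ex 488/em 540 nm, 60 sec on FLIPR 3. For agonist mode, compound added directly; for inhibition, 15 min compound pre-incubation before carbachol at EC80 (added as a 3× solution), or co-application. Buffer pH 7.4 with 1 mM probenecid; DMSO 0.5%.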

[2] = target: T2, M1 muscarinic receptor (Homo sapiens, UniProt P11229); experiment: Functional mobilization of intracellular calcium (FLIPR, Fluo-3), M1-CHO cells; type: cell-based; conditions: for Emax: read-out: M1 Efficacy
T2 construct: expressed in transfected cells; host or cells: CHO cells (M1-CHO, under zeocin and G418 selection)
T2 sequence (P11229 1-460): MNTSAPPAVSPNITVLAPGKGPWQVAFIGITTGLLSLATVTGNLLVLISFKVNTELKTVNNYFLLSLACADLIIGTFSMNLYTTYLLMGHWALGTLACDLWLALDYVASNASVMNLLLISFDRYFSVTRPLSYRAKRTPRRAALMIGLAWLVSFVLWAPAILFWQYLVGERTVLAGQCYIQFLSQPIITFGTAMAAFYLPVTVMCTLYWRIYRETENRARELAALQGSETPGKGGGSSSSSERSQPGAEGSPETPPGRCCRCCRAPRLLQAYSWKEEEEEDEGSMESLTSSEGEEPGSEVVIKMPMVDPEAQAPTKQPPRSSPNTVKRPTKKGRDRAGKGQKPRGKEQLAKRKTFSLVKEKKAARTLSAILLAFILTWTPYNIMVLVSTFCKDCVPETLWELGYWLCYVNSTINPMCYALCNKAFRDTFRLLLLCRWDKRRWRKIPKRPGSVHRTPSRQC
Outline: as §1

[3] = compound nos. 1-454, M4-CHO cells, calcium mobilization
[4] = compound nos. 1-454, 100% efficacy is the maximum response obtained with the Carbachol control
[5] = compound nos. 1-454, M1-CHO cells, calcium mobilization
[6] = compound nos. 455-509, 100% efficacy is the maximum response obtained with the Carbachol control

SMILES	Emax ([1]; compound nos. 1-454)	M4 Activity [1, 3]	Emax [2, 4]	M1 Activity [2, 5]	other results
COCCOC(=O)N1CC2(CCN(C3CC4CCC(C3)N4C(=O)O[C@@H]3CCOC3)CC2)c2cc(F)ccc21 (stereo partly drawn) [compound 304]	< 55%	+ (activity was measured to be greater than or equal to 4.0 μM)	65 to 85%	+++ (activity was measured to be less than or equal to 0.7 μM)	
CCCOC(=O)N1C2CCC1CC(N1CCC3(CC1)CN(S(C)(=O)=O)c1ccc(F)cc13)C2 (stereo not drawn) [compound 294]	55 to 70%	++ (activity was measured to be between 0.1 μM and 4.0 μM)	> 85%	++ (activity was measured to be between 0.7 μM and 3.0 μM)	
CCOC(=O)N1CCC(CN2CCC3(CC2)COc2ccc(Cl)cc23)CC1 [compound 176]	55 to 70%	++ (activity was measured to be between 0.1 μM and 4.0 μM)	> 85%	++ (activity was measured to be between 0.7 μM and 3.0 μM)	
CC(=O)N[C@H]1CC2(CCN(C3C4CC5CC(C4)CC3C5)CC2)c2ccccc21 (stereo partly drawn) [compound 4]	< 55%	+ (activity was measured to be greater than or equal to 4.0 μM)	< 65%	+++ (activity was measured to be less than or equal to 0.7 μM)	
CN(C)C(=O)N1CC2(CCN(C3CC4CCC(C3)N4C(=O)O[C@H]3CCOC3)CC2)c2cc(F)ccc21 (stereo partly drawn) [compound 130]	< 55%	++ (activity was measured to be between 0.1 μM and 4.0 μM)	< 65%	+++ (activity was measured to be less than or equal to 0.7 μM)	
CCOC(=O)N1C2CCC1CC(N1CCC3(CC1)CN(C(C)=O)c1c(F)cccc13)C2 (stereo not drawn) [compound 322]	> 70%	+++ (activity was measured to be less than or equal to 0.1 μM)	< 65%	++ (activity was measured to be between 0.7 μM and 3.0 μM)	
Fc1ccc2c(c1)C1(CCN(C3CCCCC3)CC1)CN2 [compound 325]	< 55%	+ (activity was measured to be greater than or equal to 4.0 μM)	65 to 85%	+ (activity was measured to be greater than or equal to 3.0 μM)	
CC(=O)N1CC2(CCN(C3CCN(C(=O)OC4CCC4)CC3)CC2)c2cc(F)ccc21 [compound 140]	> 70%	+++ (activity was measured to be less than or equal to 0.1 μM)	> 85%	+++ (activity was measured to be less than or equal to 0.7 μM)	
CC(=O)N1CC2(CCN(C3CCCCCC3)CC2)c2cc(F)ccc21 [compound 210]	< 55%	+ (activity was measured to be greater than or equal to 4.0 μM)	65 to 85%	++ (activity was measured to be between 0.7 μM and 3.0 μM)	
CC(=O)NC1CC2(CCN(C[C@H]3C[C@H]4C=C[C@H]3C4)CC2)c2ccccc21 (stereo partly drawn) [compound 392]					M4 Activity ([1]; compound nos. 1-454): + (activity was measured to be greater than or equal to 4.0 μM); M4 Efficacy ([1]; compound nos. 1-454): + (efficacy was calculated to be 55% or less); M1 Activity ([2]; compound nos. 1-454): +++ (activity was measured to be less than or equal to 0.7 μM)
c1ccc2c(c1)NCC21CCN(C2CC3CCC(C3)C2)CC1 (stereo not drawn) [compound 420]	< 55%		< 65%		M4 Activity ([1]; compound nos. 1-454): + (activity was measured to be greater than or equal to 4.0 μM); M1 Activity ([2]; compound nos. 1-454): ++ (activity was measured to be between 0.7 μM and 3.0 μM)
CCc1cnc(N2CCC(N3CCC4(CC3)CN(C(=O)N(C)C)c3ccccc34)CC2)cn1 [compound 466]					Emax ([1]; compound nos. 455-509): 25 to 100%; M4 Activity ([1]; compounds 455-509): ++ (activity was measured to be between 2.0 μM and 5.0 μM); Emax [2, 6]: > 100%; M1 Activity ([2]; compounds 455-509): ++ (activity was measured to be between 2.0 μM and 5.0 μM)
O=C(OCC(F)F)N1C2CCC1CC(N1CCC3(CC1)COc1ccc(F)cc13)C2 (stereo not drawn) [compound 186]	55 to 70%	+ (activity was measured to be greater than or equal to 4.0 μM)	> 85%	+++ (activity was measured to be less than or equal to 0.7 μM)	
CCOC(=O)N1C2CCC1CC(N1CCC3(CC1)CN(C(=O)C(C)C)c1ccc(F)cc13)C2 (stereo not drawn) [compound 390]	< 55%		65 to 85%		M4 Activity ([1]; compound nos. 1-454): + (activity was measured to be greater than or equal to 4.0 μM); M1 Activity ([2]; compound nos. 1-454): +++ (activity was measured to be less than or equal to 0.7 μM)
COC(=O)N1C2CCC1CC(N1CCC3(CC1)CN(S(C)(=O)=O)c1ccc(F)cc13)C2 (stereo not drawn) [compound 383]	< 55%		65 to 85%		M4 Activity ([1]; compound nos. 1-454): ++ (activity was measured to be between 0.1 μM and 4.0 μM); M1 Activity ([2]; compound nos. 1-454): +++ (activity was measured to be less than or equal to 0.7 μM)
O=C(C1CC1)N1CC2(CCN(C3CC4CCC(C3)N4C(=O)O[C@@H]3CCOC3)CC2)c2cc(F)ccc21 (stereo partly drawn) [compound 87]	< 55%	+ (activity was measured to be greater than or equal to 4.0 μM)	65 to 85%	+++ (activity was measured to be less than or equal to 0.7 μM)	
CCCOC(=O)N1CCCC(N2CCC3(CC2)CN(C(C)=O)c2ccc(F)cc23)CC1 (stereo not drawn) [compound 266]	< 55%	+ (activity was measured to be greater than or equal to 4.0 μM)	< 65%	+ (activity was measured to be greater than or equal to 3.0 μM)	
C#CCCOC(=O)N1CCC(N2CCC3(CC2)CN(C(C)=O)c2ccc(F)cc23)CC1 [compound 62]	55 to 70%	++ (activity was measured to be between 0.1 μM and 4.0 μM)	< 65%	+++ (activity was measured to be less than or equal to 0.7 μM)	
CC(=O)N1CC2(CCN(C3CCCC3)CC2)c2cc(F)ccc21 [compound 343]	< 55%	+++ (activity was measured to be less than or equal to 0.1 μM)	65 to 85%	+++ (activity was measured to be less than or equal to 0.7 μM)	
CCOC(=O)N1CCC(N2CCC3(CC2)CN(C(=O)O[C@H]2CCOC2)c2ccc(F)cc23)CC1 [compound 49]		+++ (activity was measured to be less than or equal to 0.1 μM)		+++ (activity was measured to be less than or equal to 0.7 μM)	M4 Efficacy ([1]; compound nos. 1-454): ++ (efficacy was calculated to be between 70% and 55%); M1 Efficacy [2, 4]: +++ (efficacy was calculated to be 85% or more)
CC(C)C(=O)N[C@H]1CC2(CCN(C[C@H]3C[C@H]4CC[C@H]3C4)CC2)c2ccccc21 [compound 55]	55 to 70%	+++ (activity was measured to be less than or equal to 0.1 μM)	> 85%	+++ (activity was measured to be less than or equal to 0.7 μM)	
CCOC(=O)N1C2CCC1CC(N1CCC3(CC1)CN(C(=O)c1snnc1C)c1ccc(F)cc13)C2 (stereo not drawn) [compound 59]	55 to 70%	++ (activity was measured to be between 0.1 μM and 4.0 μM)	< 65%	+++ (activity was measured to be less than or equal to 0.7 μM)	
CC(C)OC(=O)N1C2CCC1CC(N1CCC3(CC1)CN(C(=O)OC1CCC1)c1ccc(F)cc13)C2 (stereo not drawn) [compound 166]	> 70%	+ (activity was measured to be greater than or equal to 4.0 μM)	> 85%	+++ (activity was measured to be less than or equal to 0.7 μM)	
CC(=O)N1CC2(CCN(C3CC4CCC(C3)N4C(=O)O[C@@H]3CCOC3)CC2)c2cc(F)ccc21 (stereo partly drawn) [compound 67]	< 55%	++ (activity was measured to be between 0.1 μM and 4.0 μM)	< 65%	+++ (activity was measured to be less than or equal to 0.7 μM)	
CN(C)C(=O)N1CC2(CCN(C3CC4CCC(C3)N4c3cnccn3)CC2)c2ccccc21 (stereo not drawn) [compound 500]					Emax ([1]; compound nos. 455-509): 25 to 100%; M4 Activity ([1]; compounds 455-509): ++ (activity was measured to be between 2.0 μM and 5.0 μM); Emax [2, 6]: > 100%; M1 Activity ([2]; compounds 455-509): +++ (activity was measured to be less than or equal to 2.0 μM)
